Measurements reported in US20260152480A1, “POLYCYCLIC COMPOUND AND USE THEREOF” (TYK MEDICINES , INC., priority 2022, published 2026).
pIC50: −log10 of the molar value.

Legend:
[1] = system: Human pleural mesothelioma cells NCI-H226; experiment: Proliferation inhibition assay of human pleural mesothelioma cells NCI-H226 (CCK8); assay type: cell-based; details: 72 h, 3 days incubation
Description: Experimental Example 1 Cell Anti-Proliferation Test
Proliferation Inhibition Assay of Human Pleural Mesothelioma Cells NCI-H226 by YAP-TEAD Inhibitor Compounds
Experimental materials and equipment: Human pleural mesothelioma cells NCI-H226 were purchased from Nanjing Cobioer Biosciences CO., LTD. RPMI-1640 medium (Bio-Channel), DMSO (dimethyl sulfoxide), CCK8 (WST-8) cell analysis kit (Beyotime), 0.25% EDTA-Tripsin (trypsin solution), 1×PBS (phosphate buffer, PH7.2), 96-well plate (Corning), fetal bovine serum (FBS), 10,000 U/mL penicillin-G/streptomycin, high-speed cryo-centrifuge (EPPENDORF 5810R), enzyme-linked immunoassay (Tecan Spark).
• A) Tumor cells were cultured in RPMI-1640 (containing 10% FBS and 100 U/mL penicillin-G/streptomycin) at 37° C., 5% CO^2 and saturated humidity until 80-90% density. • B) Removed the culture medium from 10 cm Petri dishes; • C) Rinsed the cells once with 10 ml 1×PBS; • D) Added 4 ml 0.25% EDTA-Tripsin into 37° C., 5% CO^2 incubator for trypsin digestion for 5 minutes, transferred to 15 ml centrifuge tube, centrifuged at 200 g for 5 minutes, discarded the supernatant to get cell precipitate; • E) Resuspend with 4 ml DMEM medium, count and adjust to 10,000 cells/ml. • F) Added cell suspension to 96-well plate with 100 μL per well volume and incubate overnight at 37° C., 5% CO^2 incubator.
• A) Preparation of gradient dilution solution of tested compounds: the test compounds were configured into 1 mM reservoir solution. Then 1.5 μl of the reservoir solution was dissolved in 1.5 ml of DMSO-free culture solution, and then a 3-fold serial gradient dilution was performed with 0.1% DMSO culture solution for a total of 9 concentrations, and the concentrations of the compounds after dilution were as follows: • 333.33 nM, 111.11 nM, 37.03 nM, 12.35 nM, 4.15 nM, 1.37 nM, 0.46 nM, 0.15 nM • B) After thorough mixing, 100 μL of culture compound solution was taken separately to replace the culture solution in the cell culture plate, with 4 replicate wells for each concentration; • C) The cells were transferred to the incubator and incubated for 3 days.
• A) Removed the cell culture plate and added 10 μl of CCK-8 (WST-8) solution per well in the biosafety cabinet. • B) Placed the cell culture plate back into the incubator and continued incubation for 3 hours. • C) Determined the absorbance value by selecting 450 nm on a TECAN enzyme-linked immunoassay detector.
The cell viability (% Cell Viability) was calculated using the following formula.
[formula] • A (dosing): absorbance of wells with cells, CCK8 solution and drug solution • A (blank): absorbance of wells with medium and CCK8 solution but no cells • A (0 dosing): absorbance of wells with cells, CCK8 solution and no drug solution • Cell viability: Cell proliferation viability or cytotoxicity viability IC50 values were obtained by curve fitting with GraphPad Prism 8 software.

YAP-TEAD = experiment: Nano luciferase method to detect YAP-TEAD inhibitor activity (293T cells transfected with pGL3B-8×GTiiC-nLuc-CMV-fLuc); assay type: cell-based; details: Homo sapiens, HEK-293T; transfected 293T cells, 48 hours incubation; read-out: Nano Luciferas detection (IC50)
Description: Experimental Example 2 Nano Luciferase Method to Detect YAP-TEAD Inhibitor Activity
(1) Experimental materials and equipment: 293T cells were purchased from Nanjing Cobioer Biosciences CO., LTD. DMEM medium (high sugar, phenol red free, Bio-Channel), DMSO (dimethyl sulfoxide), Lipo6000™ transfection reagent (Beyotime), pGL3B-8×GTiiC-nLuc-CMV-fLuc plasmid, 0.25% EDTA Tripsin (trypsin solution), 1×PBS (phosphate buffer, PH7.2), 96-well white cell culture plate (PerkinElmer), Fetal Bovine Serum (FBS), 10,000 U/mL penicillin-G/streptomycin, High-speed cryo-centrifuge (EPPENDORF 5810R), 37° C. CO^2 incubator, Vi-Cell® cell counter, Envision microplate reader (PerkinElmer).
Resuscitated 293T cells were inoculated into 10 cm petri dishes and placed in a 5% CO^2 incubator at a constant temperature of 37° C. To ensure transfection efficiency, cells in the logarithmic phase (cell density of about 50%-70%) should be used.
One day before transfection, cells in logarithmic phase were digested with Trypsin-EDTA, the reaction was terminated by adding medium, and the cell suspension was made by blowing and mixing with a pipette.
The cell concentration was determined using Vi-cell and diluted to a suspension of 5*10^5 cells per milliliter. Once the cell suspension was prepared, it was gently mixed and 10 ml of liquid was added to a 10 cm petri dish. […] The cells were incubated in a 5% CO^2 incubator at 37° C. for 1 day.
Take two clean and sterile centrifuge tubes, added 750 μL of opti-MEM Medium without antibiotics and serum respectively, then added […] of plasmid (pGL3B-8×GTiiC-nLuc-CMV-fLuc) to one of the tubes and gently blown with a pipette for mixing; the other tube was added with Lipo6000 transfection reagent and gently blown with a pipette for mixing. After standing at room temperature for 5 minutes, the culture medium containing DNA was gently added to the culture medium containing Lipo6000 transfection reagent, mixed by gently inverting the centrifuge tube, and stood at room temperature for 5 minutes.
The above mixture was added evenly dropwise to a 10-cm petri dish and replaced with fresh complete medium after 6 h of incubation.
After 1 day of transfection, Trypsin EDTA was used to digest the cells, medium was added to terminate the reaction, and a cell suspension was made by blowing and mixing with a pipette.
Cell concentration was determined using Vi-cell, and diluted to a suspension of 20,000 cells per milliliter.
After the cell suspension was prepared, it was gently mixed and 100 μL was added to each well in a 96-well plate so that the density of cells to be measured was 2000 per well.
The inoculated cell culture plates were incubated in an incubator, and the compounds in concentration gradients were added after about 24 hours.
The 10 mM compound reservoir solution was diluted to 50 μM with culture medium, and 50 μM compound solution was added sequentially to the third column of the deep-well plate, and 216 μL of culture medium containing 0.5% DMSO to the fourth to eleventh columns.
Gradient dilution: 100 μL of solution was pipetted from the third column and added to the fourth column, after mixing; another 100 μL of solution was pipetted from the fourth column and added to the fifth column, and the operation was repeated until the eleventh column.
Using a multichannel pipette, 25 μL of compound solution was pipetted from the deep-well plate and added to the 96-well culture plate, and each compound was repeated four times on the 96-well plate. A concentration gradient with a maximum concentration of 10,000 nM, 1:3.16, was eventually formed on the 96-well plate.
The 96-well plate was incubated in a 5% CO^2 incubator at a constant temperature of 37° C. for 48 hours, then removed and equilibrated at room temperature for 10 minutes.
100 μL of detection reagent was added to each well and placed on a horizontal shaker at low speed for 10 minutes to fully lyse the cells. […]

[2] = Pharmacokinetic study of the drug, oral administration to rats (plasma, cerebrospinal fluid, brain tissue); assay type: in vivo; details: SD rat, 10 mg/kg, single; for Kp: brain tissue (post perfusion) and plasma, read-out: B/P value; for Kp uu: in vivo, read-out: Kpuu Value; for AUC(0-inf) / AUC(0-t) / Cmax / MRT last / Tmax: plasma
Description: Experimental Example 3 Pharmacokinetic Study of the Drug
Oral Administration Solvent: 5% DMSO+10% Solutol HS15+85% Saline
Oral administration preparation process: weighed the appropriate amount of powder, added the appropriate volume of DMSO, vortex, then added the appropriate volume of Solutol solution, vortex, and added the appropriate amount of saline, vortex ultrasound into a homogeneous and clarified state of the preparation solution.
The animal room was equipped with an air-conditioning system and well ventilated, and the indoor temperature was maintained in the range of 20-26° C., and the humidity was maintained in the range of 40%-70%. The animal room was artificially illuminated with 12 hours of light and 12 hours of dark (except for the working light that needed to be turned on for experimental operation and cleaning), and the experimental animals were free to feed and drink.
Animals were purchased and fed normally for at least 3 days, and rats that were examined by a veterinarian and had qualified physical conditions were enrolled in this experiment; each rat was labeled with a tail mark. Animals in the oral administration group were fasted overnight the day before administration, and resumed feeding and drinking freely 4 hours after administration.
Before administration, checked the state of the administered preparation, ensured the homogeneity of the preparation by vortexing, stirring or oscillating, and calculated the theoretical volume of the administered drug for each SD rat in each group according to the following formula.
Mode of administration: Oral administration to rats, fasted overnight prior to administration.

| pIC50 [1] | pIC50 (YAP-TEAD) | HL— [2] [h] | Kp [2] | Kp uu [2] | AUC(0-inf) [2] [ng·h/mL] | AUC(0-t) [2] [ng·h/mL] | Cmax [2] [ng/mL] | MRT last [2] [h] | Tmax [2] [h] | Structure (SMILES) |
| --- | --- | --- | --- | --- | --- | --- | --- | --- | --- | --- |
| ≥ 7.00 | ≥ 7.00 | 2.66 | 1.22 | 0.765 | 3920 | 3910 | 679 | 4.6 | 1.5 | C=CC(=O)N1CCC(c2cccnc2Oc2ccc(C(F)(F)F)cc2)CC1 [Compound T59] |
| 6.00 to 7.00 | ≥ 7.00 | 3.03 | – | – | 19600 | 19400 | 1880 | 6.89 | 3.33 | C=CC(=O)N1CCC(c2ccc(Cl)nc2Nc2ccc(C(F)(F)F)cc2)CC1 [Compound T27] |
| ≥ 7.00 | ≥ 7.00 | 2.07 | 1.41 | 0.518 | 17400 | 17300 | 2840 | 4.48 | 2.67 | C=CC(=O)N1CCC(c2nccnc2Nc2ccc(C(F)(F)F)cc2)CC1 [Compound T16] |
| ≥ 7.00 | ≥ 7.00 | 4.40 | 1.88 | 0.286 | 18000 | 17500 | 1650 | 6.75 | 1.67 | C=CC(=O)N1CCC(c2cc(Cl)cnc2Oc2ccc(C(F)(F)F)cc2)CC1 [Compound T40] |
| ≥ 7.00 | ≥ 7.00 | 2.64 | – | – | 3500 | 3290 | 594 | 3.97 | 2 | C=CC(=O)N1CCC(c2cc(C)cnc2Nc2ccc(C(F)(F)F)cc2)CC1 [Compound T22] |
| 6.00 to 7.00 | ≥ 7.00 | 1.59 | – | – | 4830 | 4770 | 901 | 3.8 | 2.67 | C=CC(=O)N1CCC(c2cc(-c3cc[nH]n3)cnc2Nc2ccc(C(F)(F)F)cc2)CC1 [Compound T92] |
| 6.00 to 7.00 | 6.00 to 7.00 | 13.97 | – | – | 18000 | 12300 | 804 | 9.85 | 4.67 | C=CC(=O)N1CCC(c2c(Nc3ccc(C(F)(F)F)cc3)ncc3ccccc23)CC1 [Compound T37] |
| ≥ 7.00 | ≥ 7.00 | 2.67 | 2.01 | 0.269 | 7560 | 7540 | 1180 | 5.81 | 2 | C=CC(=O)N1CCC(c2nccnc2Oc2ccc(C(F)(F)F)cc2)CC1 [Compound T58] |
| 5.30 to 6.00 | ≥ 7.00 | 2.95 | 0.56 | 0.038 | 13200 | 10800 | 1960 | 3.49 | 2.67 | C=CC(=O)N1CCC(c2cc(-c3cnn(C)c3)cnc2Nc2ccc(C(F)(F)F)cc2)CC1 [Compound T61] |
| ≥ 7.00 | ≥ 7.00 | 1.93 | – | – | 5260 | 5250 | 919 | 4.28 | 1.33 | C=CC(=O)N1CCC(c2cccnc2Nc2ccc(C(F)(F)F)cc2)CC1 [Compound T1] |
